Assay results: patent publication US20170190705A1, “Compositions and Methods for Inhibiting BMP” (THE BRIGHAM AND WOMAN'S HOSPITAL, INC., priority 2014, published 2017)
Where two headings read alike, the source gives them in different places.

Legend:
[1] = target: TRKC (Homo sapiens, UniProt Q16288); assay: Kinome profiling TRKC; format: biochemical; conditions: read-out: Inhibitory activity TRKC; for inhibition at 0.1 µM: 100 nM
Method: (§1) . The kinome-wide selectivity was determined following the methods previously reported by Mohedas et al., ACS Chem Biol 2013, 8, 1291-1302 and Sanvitale et al., PLoS One 2013, 8, e62721.

[2] = target: T1, CHEK1 (Homo sapiens, UniProt O14757); assay: Kinome profiling CHEK1; format: biochemical; conditions: read-out: Inhibitory activity CHEK1; for inhibition at 0.1 µM: 100 nM
T1 sequence (O14757 1-476): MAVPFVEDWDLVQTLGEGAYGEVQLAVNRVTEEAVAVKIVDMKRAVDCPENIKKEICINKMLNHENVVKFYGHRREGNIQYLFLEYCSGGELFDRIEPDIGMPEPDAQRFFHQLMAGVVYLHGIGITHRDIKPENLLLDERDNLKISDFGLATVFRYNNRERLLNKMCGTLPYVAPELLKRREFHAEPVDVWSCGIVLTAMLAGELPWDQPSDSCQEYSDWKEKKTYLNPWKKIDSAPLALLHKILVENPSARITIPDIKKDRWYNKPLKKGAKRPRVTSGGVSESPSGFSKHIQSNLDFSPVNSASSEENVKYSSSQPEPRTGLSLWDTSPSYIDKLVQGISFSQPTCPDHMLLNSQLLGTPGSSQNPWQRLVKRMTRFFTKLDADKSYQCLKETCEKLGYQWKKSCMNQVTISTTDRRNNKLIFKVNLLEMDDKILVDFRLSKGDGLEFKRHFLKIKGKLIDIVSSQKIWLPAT
Method: as §1

[3] = target: PLK1 (Homo sapiens, UniProt P53350); assay: Kinome profiling PLK1; format: biochemical; conditions: read-out: Inhibitory activity PLK1; for inhibition at 0.1 µM: 100 nM
Chain of PLK1 (P53350 whole entry): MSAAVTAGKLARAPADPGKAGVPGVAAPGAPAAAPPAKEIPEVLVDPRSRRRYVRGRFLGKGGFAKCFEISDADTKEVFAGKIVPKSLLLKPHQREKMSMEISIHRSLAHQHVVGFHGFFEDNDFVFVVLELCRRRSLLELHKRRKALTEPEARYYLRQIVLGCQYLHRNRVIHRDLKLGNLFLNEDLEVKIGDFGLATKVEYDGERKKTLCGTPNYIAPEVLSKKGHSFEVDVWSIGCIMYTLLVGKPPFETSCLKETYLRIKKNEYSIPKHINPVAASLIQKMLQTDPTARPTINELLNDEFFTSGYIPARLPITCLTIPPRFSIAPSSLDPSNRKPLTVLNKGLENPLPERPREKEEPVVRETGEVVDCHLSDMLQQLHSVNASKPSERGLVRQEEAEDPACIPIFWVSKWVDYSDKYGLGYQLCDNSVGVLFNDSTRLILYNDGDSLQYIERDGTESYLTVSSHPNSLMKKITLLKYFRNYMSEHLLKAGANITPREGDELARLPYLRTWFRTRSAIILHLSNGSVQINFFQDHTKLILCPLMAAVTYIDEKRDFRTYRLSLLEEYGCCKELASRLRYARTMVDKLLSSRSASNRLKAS
Method: as §1

[4] = target: CK1α (Homo sapiens, UniProt P48729); assay: Kinome profiling CK1α; format: biochemical; conditions: read-out: Inhibitory activity CK1α; for inhibition at 0.1 µM: 100 nM
Chain of CK1α (P48729 whole entry): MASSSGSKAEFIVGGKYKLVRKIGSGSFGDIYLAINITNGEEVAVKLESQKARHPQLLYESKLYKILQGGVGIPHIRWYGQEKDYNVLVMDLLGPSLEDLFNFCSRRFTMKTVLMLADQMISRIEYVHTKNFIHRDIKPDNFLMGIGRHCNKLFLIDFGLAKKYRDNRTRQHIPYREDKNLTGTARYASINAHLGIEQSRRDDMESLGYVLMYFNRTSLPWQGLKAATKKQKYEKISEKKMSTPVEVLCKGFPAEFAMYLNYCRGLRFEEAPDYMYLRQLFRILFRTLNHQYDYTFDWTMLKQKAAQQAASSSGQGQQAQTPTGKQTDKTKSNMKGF
Method: as §1

[5] = target: FER (Homo sapiens, UniProt P16591); assay: Kinome profiling FER; format: biochemical; conditions: read-out: Inhibitory activity FER; for inhibition at 0.1 µM: 100 nM
Chain of FER (P16591 whole entry): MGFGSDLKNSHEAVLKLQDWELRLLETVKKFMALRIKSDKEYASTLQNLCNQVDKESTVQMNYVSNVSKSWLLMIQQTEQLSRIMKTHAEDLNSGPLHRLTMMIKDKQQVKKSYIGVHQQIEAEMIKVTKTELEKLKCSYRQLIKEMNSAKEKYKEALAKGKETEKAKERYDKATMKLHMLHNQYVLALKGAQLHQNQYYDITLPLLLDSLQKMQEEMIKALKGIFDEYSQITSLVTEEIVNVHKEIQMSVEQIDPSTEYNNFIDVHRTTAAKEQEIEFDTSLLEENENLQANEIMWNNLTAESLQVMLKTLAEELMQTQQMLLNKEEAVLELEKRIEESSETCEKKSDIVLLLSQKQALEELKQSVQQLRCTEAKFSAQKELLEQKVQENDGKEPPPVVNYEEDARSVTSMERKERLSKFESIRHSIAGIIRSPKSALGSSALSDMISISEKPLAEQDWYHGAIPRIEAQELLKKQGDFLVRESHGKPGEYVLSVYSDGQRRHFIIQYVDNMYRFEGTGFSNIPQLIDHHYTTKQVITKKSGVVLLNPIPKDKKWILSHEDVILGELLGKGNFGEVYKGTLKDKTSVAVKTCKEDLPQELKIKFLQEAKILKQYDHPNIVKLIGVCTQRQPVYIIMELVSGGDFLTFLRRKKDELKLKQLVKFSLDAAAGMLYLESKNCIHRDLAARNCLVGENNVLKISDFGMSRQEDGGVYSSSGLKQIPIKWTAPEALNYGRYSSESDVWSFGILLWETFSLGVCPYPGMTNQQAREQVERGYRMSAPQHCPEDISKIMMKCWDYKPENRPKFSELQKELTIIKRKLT
Method: as §1

[6] = target: PHKγ1 (Homo sapiens, UniProt Q16816); assay: Kinome profiling PHKγ1; format: biochemical; conditions: read-out: Inhibitory activity PHKγ1; for inhibition at 0.1 µM: 100 nM
Chain of PHKγ1 (Q16816 whole entry): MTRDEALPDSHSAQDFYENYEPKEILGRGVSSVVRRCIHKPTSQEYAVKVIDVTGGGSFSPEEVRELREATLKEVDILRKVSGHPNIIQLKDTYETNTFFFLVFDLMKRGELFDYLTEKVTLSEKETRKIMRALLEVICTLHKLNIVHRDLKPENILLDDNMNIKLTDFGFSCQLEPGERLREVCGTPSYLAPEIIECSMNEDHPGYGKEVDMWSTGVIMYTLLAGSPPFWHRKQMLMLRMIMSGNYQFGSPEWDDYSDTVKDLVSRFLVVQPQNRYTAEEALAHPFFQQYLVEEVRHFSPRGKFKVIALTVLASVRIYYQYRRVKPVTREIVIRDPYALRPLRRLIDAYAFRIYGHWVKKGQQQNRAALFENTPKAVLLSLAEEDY
Method: as §1

[7] = target: AKT1 (Homo sapiens, UniProt P31749); assay: Kinome profiling AKT1; format: biochemical; conditions: read-out: Inhibitory activity AKT1; for inhibition at 0.1 µM: 100 nM
Chain of AKT1 (P31749 whole entry): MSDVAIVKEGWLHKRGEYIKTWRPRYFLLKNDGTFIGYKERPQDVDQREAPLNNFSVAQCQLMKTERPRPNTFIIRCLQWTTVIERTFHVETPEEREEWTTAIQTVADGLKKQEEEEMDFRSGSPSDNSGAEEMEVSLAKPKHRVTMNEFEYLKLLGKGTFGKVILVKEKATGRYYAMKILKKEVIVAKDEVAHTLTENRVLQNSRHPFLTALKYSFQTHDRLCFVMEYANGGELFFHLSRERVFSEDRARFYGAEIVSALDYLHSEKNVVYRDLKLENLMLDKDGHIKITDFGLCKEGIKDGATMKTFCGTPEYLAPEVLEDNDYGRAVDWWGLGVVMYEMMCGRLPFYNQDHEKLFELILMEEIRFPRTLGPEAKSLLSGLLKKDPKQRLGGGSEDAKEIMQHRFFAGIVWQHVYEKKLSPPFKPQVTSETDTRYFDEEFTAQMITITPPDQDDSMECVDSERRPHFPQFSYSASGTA
Method: as §1

[8] = target: GSK3α (Homo sapiens, UniProt P49840); assay: Kinome profiling GSK3α; format: biochemical; conditions: read-out: Inhibitory activity GSK3α; for inhibition at 0.1 µM: 100 nM
Method: as §1

[9] = target: PKC-α (Homo sapiens, UniProt P17252); assay: Kinome profiling PKC-α; format: biochemical; conditions: read-out: Inhibitory activity PKC-α; for inhibition at 0.1 µM: 100 nM
Method: as §1

[10] = target: T2, MUSK (Homo sapiens, UniProt O15146); assay: Kinome profiling MUSK; format: biochemical; conditions: read-out: Inhibitory activity MUSK; for inhibition at 0.1 µM: 100 nM
T2 sequence (O15146 24-869): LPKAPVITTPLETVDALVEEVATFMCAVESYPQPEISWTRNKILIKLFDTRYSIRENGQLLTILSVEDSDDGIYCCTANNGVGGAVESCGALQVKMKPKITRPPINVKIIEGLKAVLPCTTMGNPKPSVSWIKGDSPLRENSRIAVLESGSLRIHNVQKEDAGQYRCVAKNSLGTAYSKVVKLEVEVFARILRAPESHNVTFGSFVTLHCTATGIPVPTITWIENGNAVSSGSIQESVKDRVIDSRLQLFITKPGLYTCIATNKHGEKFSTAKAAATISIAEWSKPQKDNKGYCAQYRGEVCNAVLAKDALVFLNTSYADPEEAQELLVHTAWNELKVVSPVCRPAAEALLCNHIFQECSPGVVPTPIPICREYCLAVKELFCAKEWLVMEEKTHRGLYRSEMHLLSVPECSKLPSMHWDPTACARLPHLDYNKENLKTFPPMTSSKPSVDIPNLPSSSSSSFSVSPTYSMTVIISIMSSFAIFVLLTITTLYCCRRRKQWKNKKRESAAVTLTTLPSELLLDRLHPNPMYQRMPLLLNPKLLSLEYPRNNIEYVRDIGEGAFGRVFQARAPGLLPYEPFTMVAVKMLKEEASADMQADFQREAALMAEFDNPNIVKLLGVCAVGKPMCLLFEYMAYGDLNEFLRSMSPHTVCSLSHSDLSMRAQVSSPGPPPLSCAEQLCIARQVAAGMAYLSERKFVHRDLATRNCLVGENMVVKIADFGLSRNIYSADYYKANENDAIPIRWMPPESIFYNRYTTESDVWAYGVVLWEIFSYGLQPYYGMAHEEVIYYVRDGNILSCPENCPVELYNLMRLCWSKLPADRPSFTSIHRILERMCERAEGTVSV
Method: as §1

[11] = target: LYNA (Homo sapiens, UniProt P07948); assay: Kinome profiling LYNA; format: biochemical; conditions: read-out: Inhibitory activity LYNA; for inhibition at 0.1 µM: 100 nM
Chain of LYNA (P07948 whole entry): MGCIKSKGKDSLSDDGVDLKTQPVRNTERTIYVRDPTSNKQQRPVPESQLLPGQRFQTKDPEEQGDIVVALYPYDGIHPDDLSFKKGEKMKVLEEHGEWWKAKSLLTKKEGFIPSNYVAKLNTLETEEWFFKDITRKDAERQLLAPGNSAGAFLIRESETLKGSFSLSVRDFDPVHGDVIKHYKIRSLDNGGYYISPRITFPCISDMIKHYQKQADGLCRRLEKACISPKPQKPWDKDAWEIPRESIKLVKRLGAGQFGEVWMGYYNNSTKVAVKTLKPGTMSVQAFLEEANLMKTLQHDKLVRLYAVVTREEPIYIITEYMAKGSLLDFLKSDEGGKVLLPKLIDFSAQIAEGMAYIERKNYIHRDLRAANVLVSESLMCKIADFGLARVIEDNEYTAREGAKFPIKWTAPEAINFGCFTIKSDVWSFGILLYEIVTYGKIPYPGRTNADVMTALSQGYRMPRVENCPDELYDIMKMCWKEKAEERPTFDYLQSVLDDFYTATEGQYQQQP
Method: as §1

[12] = tested on: HePG2 hepatocarcinoma cells; format: cell-based; conditions: human
[13] = target: ROS (Homo sapiens, UniProt P08922); assay: Kinome profiling ROS; format: biochemical; conditions: read-out: Inhibitory activity ROS; for inhibition at 0.1 µM: 100 nM
Method: as §1

Chain of TRKC (Q16288 32-839): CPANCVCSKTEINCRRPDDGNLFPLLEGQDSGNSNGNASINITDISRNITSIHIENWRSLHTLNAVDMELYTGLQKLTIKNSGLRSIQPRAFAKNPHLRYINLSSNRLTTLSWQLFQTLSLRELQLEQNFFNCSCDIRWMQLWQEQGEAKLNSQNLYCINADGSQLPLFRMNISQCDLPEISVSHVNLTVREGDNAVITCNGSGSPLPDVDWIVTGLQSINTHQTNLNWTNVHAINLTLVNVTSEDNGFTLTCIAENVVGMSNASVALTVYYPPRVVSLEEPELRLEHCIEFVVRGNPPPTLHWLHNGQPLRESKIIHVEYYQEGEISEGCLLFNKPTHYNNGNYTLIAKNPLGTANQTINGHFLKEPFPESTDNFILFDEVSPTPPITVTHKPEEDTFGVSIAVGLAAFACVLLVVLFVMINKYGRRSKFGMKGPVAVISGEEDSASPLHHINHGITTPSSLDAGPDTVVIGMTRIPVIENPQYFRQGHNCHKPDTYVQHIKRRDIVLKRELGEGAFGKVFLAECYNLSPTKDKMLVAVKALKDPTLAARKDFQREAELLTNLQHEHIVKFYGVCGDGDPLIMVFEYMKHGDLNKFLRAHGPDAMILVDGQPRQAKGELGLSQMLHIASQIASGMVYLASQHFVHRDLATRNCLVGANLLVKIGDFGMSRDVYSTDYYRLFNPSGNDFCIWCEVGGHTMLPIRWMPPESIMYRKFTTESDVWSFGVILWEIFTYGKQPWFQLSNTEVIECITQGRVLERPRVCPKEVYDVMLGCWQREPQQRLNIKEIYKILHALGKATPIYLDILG

COc1cc(-c2cc(-c3ccc(N4CCNCC4)cc3)cnc2N)cc(OC)c1OC [Compound 15, 5-(4-(piperazin-1-yl)phenyl)-3-(3,4,5-trimethoxyphenyl)pyridin-2-amine] was tested, and the inhibition at 0.1 µM [1] was 3%, the inhibition at 1 µM [1] was 3% and the inhibition at 0.1 µM [2] was 2%. The inhibition at 1 µM [2] was 6%, the inhibition at 0.1 µM [3] was 3% and the inhibition at 1 µM [3] was 1%. The inhibition at 0.1 µM [4] was 5%, the inhibition at 1 µM [4] was 18% and the inhibition at 0.1 µM [5] was 0%. For the same molecule, the inhibition at 1 µM [5] was 6%, the inhibition at 0.1 µM [6] was 3% and the inhibition at 1 µM [6] was 4%. The inhibition at 0.1 µM [7] was 0%, the inhibition at 1 µM [7] was 2% and the inhibition at 0.1 µM [8] was 1%. It also gave an inhibition at 1 µM [8] of 0%, an inhibition at 0.1 µM [9] of 1% and an inhibition at 1 µM [9] of 6%. For the same molecule, the inhibition at 0.1 µM [10] was 1%, the inhibition at 1 µM [10] was 5% and the inhibition at 0.1 µM [11] was 41%. For the same molecule, the inhibition at 1 µM [11] was 84%, the Cell viability ([12]; 4 h, 1 μM) was 95% and the Cell viability ([12]; 4 h, 10 μM) was 103%. For the same molecule, the Cell viability ([12]; 4 h, 100 μM) was 103%, the Cell viability ([12]; 24 h, 1 μM) was 96% and the Cell viability ([12]; 24 h, 10 μM) was 96%. It also gave a Cell viability ([12]; 24 h, 100 μM) of 23%, an inhibition at 0.1 µM [13] of 1% and an inhibition at 1 µM [13] of 7%.

For COc1cc(-c2cc(-c3ccc(N4CCNCC4)cc3)cnc2C)cc(OC)c1OC [Compound 10, 1-(4-(6-methyl-5-(3,4,5-trimethoxyphenyl)pyridin-3-yl)phenyl)piperazine], the inhibition at 0.1 µM [1] was 4%, the inhibition at 1 µM [1] was 4% and the inhibition at 0.1 µM [2] was 4%. It also gave an inhibition at 1 µM [2] of -3%, an inhibition at 0.1 µM [3] of 4% and an inhibition at 1 µM [3] of 3%. For the same molecule, the inhibition at 0.1 µM [4] was 2%, the inhibition at 1 µM [4] was 7% and the inhibition at 0.1 µM [5] was 3%. It also gave an inhibition at 1 µM [5] of 3%, an inhibition at 0.1 µM [6] of 3% and an inhibition at 1 µM [6] of 3%. The inhibition at 0.1 µM [7] was 0%, the inhibition at 1 µM [7] was 0% and the inhibition at 0.1 µM [8] was 1%. The inhibition at 1 µM [8] was 1%, the inhibition at 0.1 µM [9] was 2% and the inhibition at 1 µM [9] was 3%. The inhibition at 0.1 µM [10] was 2%, the inhibition at 1 µM [10] was 2% and the inhibition at 0.1 µM [11] was 3%. The inhibition at 1 µM [11] was 29%, the Cell viability ([12]; 4 h, 1 μM) was 91% and the Cell viability ([12]; 4 h, 10 μM) was 100%. The Cell viability ([12]; 4 h, 100 μM) was 88%, the Cell viability ([12]; 24 h, 1 μM) was 92% and the Cell viability ([12]; 24 h, 10 μM) was 78%. For the same molecule, the Cell viability ([12]; 24 h, 100 μM) was 77%, the inhibition at 0.1 µM [13] was 2% and the inhibition at 1 µM [13] was 2%.
